Test results: patent US20220008430A1, “METHODS OF TREATING SUBJECTS HAVING PLATELET DYSFUNCTION WITH IV MELOXICAM” (priority 2018, published 2022)
Where two headings read alike, the source gives them in different places.

Columns and labels:
COX-2 / COX-1 = details: ratio of IC80 of COX-2 to IC80 of COX-1; Warner 1999; cited from earlier work
platelet function [1] = experiment: PFA-100 closure time, ex vivo whole blood, CEPI reagent cartridge; format: cell-based, human
Protocol: (§1) The PFA-100 device determines closure time by simulating platelet adhesion and aggregation following vascular injury.
(§2) Study subjects (n=13) had approximately 20 mL of whole blood collected in tubes containing 3.2% (0.105 M) buffered sodium citrate (1 part anticoagulant to 9 parts blood).
(§3) Assessment of platelet function: Platelet function was evaluated using the PFA-100 Platelet Function Analyzer (Siemens Healthcare Diagnostics, Deerfield, Ill.). […] Use of this device to measure the effect of drugs on platelet adhesion is well documented. The PFA-100 device determines a sample closure time by simulating the platelet adhesion and aggregation that occurs following vascular injury. Analysis was performed using both collagen with epinephrine (CEPI) and collagen with adenosine diphosphate (CADP) reagent cartridges. […] Whole blood aliquots were treated according to the test condition and incubated for approximately 10 minutes prior to analysis in the PFA-100. All blood samples were analyzed within 2.5 hours of the time of collection. PFA-100 closure time results were reported for each test condition and reagent cartridge. […] Samples outside this range were excluded from the primary analysis.
(§4) Statistical analysis: Treatment effect on CT was analyzed using an analysis of variance (ANOVA). […] Pairwise comparisons were performed; nominal P-values were reported without controlling for multiplicity. Subgroup analysis by gender was also performed. All analyses were performed separately for each reagent.

pain [2] = details: intravenous; Prescribing Information; cited from earlier work
platelet aggregation = details: healthy volunteers; 0.4 mg/kg; previous studies; cited from earlier work
[3] = cited from earlier work
platelet function [4] = experiment: PFA-100 closure time, ex vivo whole blood, CADP reagent cartridge; format: cell-based, human
Protocol: as §1, §2, §3, §4

[5] = cited from earlier work; remark: listed apart in the source
pain [6] = experiment: Time course of analgesic effect; format: in vivo, human; details: meloxicam administration as disclosed (IV)
[7] = all eligible subjects (12 subjects), 2.5 μg/mL
[8] = all eligible subjects (12 subjects), 5 μg/mL

For CC(=O)Oc1ccccc1C(=O)O [Aspirin, acetylsalicylic acid], the “COX-2/COX-1 IC80 ratio” value (COX-2 / COX-1) is given as 3.8.
For CC(C)Cc1ccc(C(C)C(=O)O)cc1 (stereo not drawn) [Ibuprofen], the “COX-2/COX-1 IC80 ratio” value (COX-2 / COX-1) is listed as 2.6.
In the case of O=C(c1ccccc1)c1ccc2n1CCC2C(=O)O (stereo not drawn) [Ketorolac], the “COX-2/COX-1 IC80 ratio” value (COX-2 / COX-1) is given as 294, the “LS mean closure time” value (platelet function [1]; [7]) is given as 193.17 s and the “LS mean closure time” value (platelet function [1]; [8]) is given as 191.58 s. The “LS mean closure time” value (platelet function [1]; final analysis set (8 subjects), 2.5 μg/mL) was 180.87 s, the “LS mean closure time” value (platelet function [1]; final analysis set (8 subjects), 5 μg/mL) was 143.38 s and the “prolongation in closure time vs untreated control” value (platelet function [1]; therapeutic (and for meloxicam IV supratherapeutic) concentrations) was “significant prolongations”. For the same molecule, the “time to onset of pain relief” value (pain [2]) was “up to 30 minutes”, the bleeding time (platelet aggregation) was “prolonged bleeding times” and the “epinephrine-, adenosine-, and collagen-induced platelet aggregation” value (platelet aggregation) was “significant inhibition”. For the same molecule, the peak concentration ([3]; following 15-mg IV dose) was roughly 2.5 µg/mL, the peak concentration ([3]; following 30-mg IV dose) was roughly 5 µg/mL and the “LS mean closure time” value (platelet function [4]; [7]) was 82.08 s. The “LS mean closure time” value (platelet function [4]; [8]) was 86.36 s, the “difference in closure time vs untreated control” value (platelet function [4]; all tested concentrations) was “no statistically significant differences” and the “LS mean closure time” value (platelet function [4]; final analysis set (8 subjects), 2.5 μg/mL in whole blood) was 79.41 s. The “LS mean closure time” value (platelet function [4]; final analysis set (8 subjects), 2.5 μg/mL in whole blood, listed as ketorolac) was 79.41 (5.31) seconds, the “LS mean closure time” value (platelet function [4]; final analysis set (8 subjects), 5 μg/mL in whole blood) was 87.95 s and the “LS mean closure time” value (platelet function [4]; final analysis set (8 subjects), 5 μg/mL in whole blood, listed as ketorolac) was 87.95 (5.66) seconds.
In the case of Cc1cnc(NC(=O)C2=C(O)c3ccccc3S(=O)(=O)N2C)s1 [Meloxicam, 4-hydroxy-2-methyl-N-(5-methyl-2-thiazolyl)-2H-1,2-benzothiazine-3-carboxamide-1,1-dioxide], the water solubility [5] is listed as “poor water solubility” and the therapeutic window (pain [6]) is listed as “at least 24 hours”.
For COc1ccc2cc([C@H](C)C(=O)O)ccc2c1 [Naproxen], the “COX-2/COX-1 IC80 ratio” value (COX-2 / COX-1) is listed as 3.
In the case of CS(=O)(=O)c1ccc(C2=C(c3ccccc3)C(=O)OC2)cc1 [Rofecoxib], the “COX-2/COX-1 IC80 ratio” value (COX-2 / COX-1) is listed as less than 0.05.
